# Reference: patent US20060141122A1 (Universitat De Les Illes Balears and Industrias Agricolas …, priority 1999, published 2006)
# Counter-ions that a name gives are not always drawn.
# Tests used:
# [1] = tested on: urinary risk of forming calcium kidney stones; assay: Urinary risk of forming calcium kidney stones, study on 74 individuals with oxalocalcium kidney stones; assay type: in vivo, human; conditions: for drop of the risk of forming calcium stones: 15 days after treatment start, citrate 6.48 g/day, phytate 120 mg/day, individuals with oxalocalcium kidney stones
# Method: These individuals have been divided into three groups: 19 individuals with kidney stones (Group I), 38 individuals with kidney stones (Group II) and 17 individuals with kidney stones (Group III). The urinary risk to form calcium kidney stones was evaluated for each individual before being subjected to any pharmacological treatment.
# 15 days after treatment starting, the urinary risk of forming calcium kidney stones was evaluated again for each individual.
# [2] = Urinary excretion of phytate after dietary intake; assay type: in vivo
# [3] = cited from earlier work
Structure (SMILES),drop of the risk of forming calcium stones [1],"effect on urine pH ([1]; treatment of calcium kidney stones, compared with citrate)",maximum urinary excretion as share of the total intake ([2]; diet supplemented with products rich in phytates),"intake above which the excreted amount in urine does not increase ([2]; urinary excretion, dose-dependent up to this intake)",effect on bioavailability of oligoelements such as Zn(II) and Fe(III) ([3]; doses in which maximum excretions are produced),toxicity ([3]; megadose of 8.8 g/day)
"O=C(O)CC(O)(CC(=O)O)C(=O)O [citrate, potassium citrate, reference compound]",52%,,,,,
"O=P(O)(O)O[C@H]1[C@H](OP(=O)(O)O)[C@@H](OP(=O)(O)O)[C@H](OP(=O)(O)O)[C@@H](OP(=O)(O)O)[C@H]1OP(=O)(O)O [phytate, inositol hexaphosphate]",50%,does not cause increases of the urine pH,1-5%,20.9 mg/kg of body weight,do not affect the bioavailability,does not produce any toxicity
